Measured values as given in patent publication US20230152325A1, “Active Alpha-5-Beta-1 Integrin As A Biomarker For Enhancing Tumor Treatment Efficacy” (Institute For Cancer Research d/b/a The Research Institute …, priority 2016, published 2023).

Assays:
[1] = system: naïve pancreatic fibroblasts cultured within D-ECM; test: ECM prompted myofibroblastic maintenance (α-SMA / F-actin immunofluorescence), PDAC model; assay type: cell-based, human; details: PDAC; naïve fibroblasts plated in D-ECM in presence of the agent
Protocol: (§1) ECM prompted myofibroblastic maintenance. Human naïve or assorted murine fibroblasts were incubated for 45 minutes prior to overnight culturing within assorted ECMs, prepared as above, in the presence or absence of 50 μg/ml SNAKA51, 60 μg/m ALULA, 250 μg/m mAb16, or BMAS diluted as instructed by the manufacturer (Millipore, Temecula, Calif.), IgG control, DMSO or small molecule inhibitors FAK (PF573,228) and SRC family kinases (PP2). ECM-induced phenotypes were assessed via RT-qPCR, Western Blot or immunofluorescence.
(§2) Naïve/innate PDAC and RCC patient harvested fibroblasts were cultured overnight within normal (N-ECM) vs. desmoplastic (D-ECM or DECMs that were produced in the presence or absence of TGFβ1-receptor inhibition (D+TGFβi) or vehicle control (D+DMSO). Alternatively, naïve cells cultured within D-ECMs were treated with either TGFβ1-receptor inhibitor (TGFβ-i), vehicle (DMSO), functional blocking antibodies anti-αvβ5 integrin (alula, αvβ5-i), anti-α5β1 integrin (mAb16, α5β1-i), combinations of both functional blocking antibodies (β5-i+α5-i), functional stabilizing anti α5β1 integrin (SNAKA51; α5β1-act) or non-immunized isotypic antibodies (IgG). All samples were subjected to indirect immunofluorescent labeling of desmoplastic marker α-SMA and counterstained with fluorescently labeled phalloidin to detect actin stress fibers (F-actin) and determine the co-localization ratio. Monochromatic “heat map” images (see, FIG. 2A) represent α-SMA intensity values. A 255 tones intensity scale bar is shown to the right. A summary of all measured values is graphed in FIG. 2B. Additional monochromatic images indicative of double labeled staining for α-SMA and F-actin are in FIG. 2C while levels of total α-SMA localized at corresponding stress fibers are plotted in FIG. 2D. Untreated D-ECM conditions were included in all experiments summarized in this figure and serve as normalization (1 arbitrary unit; a.u.) controls. Matching values including statistical significances are listed in accompanying Table 1. All scale bars represent 50 μm. TGFβ activity was needed to maintain functional D-ECM production but was dispensable when testing D-ECM induced responses, while the later were obstructed by αvβ5 integrin inhibition or active α5β1 integrin stabilization.

[2] = system: murine fibroblasts cultured in mD-ECM; test: mD-ECM induced myofibroblastic activation of murine fibroblasts (stress fiber α-SMA); assay type: cell-based; details: wild type murine fibroblasts in mD-ECM (80% untreated)
Protocol: as §1
FIGS. 3A through 3H show FAK independent α5β1 integrin activity negatively regulates D-ECM-induced desmoplastic activation. […]

[3] = system: naïve renal fibroblasts cultured within D-ECM; test: ECM prompted myofibroblastic maintenance (α-SMA / F-actin immunofluorescence), RCC model; assay type: cell-based, human; details: RCC; naïve fibroblasts plated in D-ECM in presence of the agent
Protocol: as §1, §2

CS(=O)(=O)c1cccc(CNc2nc(Nc3ccc4c(c3)CCC(=O)N4)ncc2C(F)(F)F)c1 [PF573,228]
α-SMA expression levels relative to untreated conditions [1]: 17% | α-SMA stress fiber localization levels [1]: 23.5% | cells undergoing myofibroblastic activation [2]: 32% | α-SMA expression levels relative to untreated conditions [3]: 70% | α-SMA stress fiber localization levels [3]: 25%
